Values quoted from earlier work as cited in US20150139938A1, “Methods and Compositions for Improving Pial Collateral Circulation and Treating Blood Clotting Disorders” (Ohio State Innovation Foundation, priority 2012, published 2015).

Tested on: stroke-induced lesion in the brain of spontaneously hypertensive rats
Conditions: orally supplemented, earlier work of the inventors

In the case of `CC(C)=CCC/C(C)=C/CC/C(C)=C/CC[C@]1(C)CCc2c(C)c(O)c(C)c(C)c2O1` [αTCT, α-tocotrienol], the “protection against stroke-induced lesion in the brain” value is listed as “protects”.
